Assay results: US11388924B2 (priority 2018, dated 2022)
Read-outs that look alike come from different tables or passages of the source.

Columns and labels:
[1] = 25° C., cited from earlier work
[2] = pig's nasal mucosa; cited from earlier work
[3] = after absorption through the lung; cited from earlier work
[4] = Source text: The neutralization reaction in vegetable glycerin is less favorable in view of the reduced solubility of CO2 (Nunes et al., 2013—Solubility of CO2 in glycerol at high pressures. J. of Fluid Phase Equilibria; 358: 105-107).
In an embodiment of the present disclosure, the experimental setup described by Bihong, et al., 2015 (Mechanisms of CO2 Capture into Monoethanolamine Solution with Different CO2 Loading during the Absorption/Desorption Processes. J. of Environmental Science technology; 49 (17): 10728-10735) was implemented. […] In a further embodiment of the present disclosure, the neutralization with CO2 was performed at pressures ranging from about 0.1 MPa to about 2.7 MPa.
The organic acid is typically selected based on volatility under vaping conditions, tastelessness, low toxicity or nontoxicity to human health, ease of manipulation, ability to form liquid salts and […] an unpleasant sensation such as shortness of breath. In a further embodiment of the present disclosure, the organic acid is glycolic acid.

[5] = 20° C.; cited from earlier work
[6] = pH 7.4; cited from earlier work

Excerpt for subjects: This sensation ranges from a smooth satisfying catch as the vapor travels down the throat to an intolerable harshness.

## O=C=O [CO2]
[1]; acetone, 0.52 MPa
  number moles of CO2 dissolved: 0.0876
[1]; ethanol, 0.41 MPa
  number moles of CO2 dissolved: 0.0349
[1]; propylene glycol, 0.38 MPa
  number moles of CO2 dissolved: 0.0100

## O=C(O)CC(O)(CC(=O)O)C(=O)O [citric acid]
subjects; in vivo
  sensation produced by the acid used in the formulation: unpleasant feeling

## CC(O)C(=O)O (stereo not shown) [lactic acid]
subjects; in vivo
  sensation produced by the acid used in the formulation: unpleasant feeling

## O=C(O)CC(O)C(=O)O (stereo not shown) [malic acid]
subjects; acid in nicotine formulations
  sensation produced by the acid used in the formulation: unpleasant feeling

## CN1CCCC1c1cccnc1 (stereo not shown) [nicotine]
[2]
  permeation of the protonated form versus the unionized form: higher than that for the unionized form
subjects; in vivo
  burning sensation in the throat: diminishes or disappears
  feeling of shortness of breath: waned or disappeared
[3]
  estimated time to reach the brain: 10 to 20 s
[4]; about 25° C., about 0.41 MPa
  pH reached by neutralization with CO2: ≤ 7.5
[4]; in water
  final pH after neutralization with CO2: 6.8
[4]; pure nicotine in propylene glycol, before neutralization
  initial pH: above 9.5
[5]
  pKa: 6.15
[6]
  nicotine ionized: ~69%
  nicotine unionized: 31%
